{
  "source": "paper PMC6316200",
  "about": "“Ceratinadins E and F, New Bromotyrosine Alkaloids from an Okinawan Marine Sponge Pseudoceratina sp” (Marine Drugs, 2018)",
  "key": {"[1]": {"test_system": "Plasmodium falciparum K1 strain", "assay": "Antimalarial activity in vitro against drug-resistant P. falciparum K1 strain", "assay_type": "cell-based", "conditions": "for IC50: Plasmodium falciparum; for Selectivity Index MRC-5/K1: ratio of IC50 MRC-5 to IC50 K1", "description": "(§1) The antimalarial activities of psammaplysin F (3), ceratinadin E (1), and ceratinadin F (2) against a drug-resistant and a drug-sensitive strains of Plasmodium falciparum (K1 and FCR3 strains, respectively) were examined, see Table 2 [16]."}, "[2]": {"test_system": "Plasmodium falciparum FCR3 strain", "assay": "Antimalarial activity in vitro against drug-sensitive P. falciparum FCR3 strain", "assay_type": "cell-based", "conditions": "for IC50: Plasmodium falciparum; for Selectivity Index MRC-5/FCR3: ratio of IC50 MRC-5 to IC50 FCR3", "description": "as §1"}, "[3]": {"assay": "Cytotoxicity against MRC-5 cells", "assay_type": "cell-based, human"}, "[4]": {"test_system": "MRC-5 (normal human embryonic lung fibroblast)", "assay": "Cytotoxicity against MRC-5 cells", "assay_type": "cell-based"}, "[5]": {"conditions": "drug-resistant P. falciparum strain K1, in vitro, read-out: Antimalarial Activity K1, IC50"}, "[6]": {"conditions": "drug-sensitive P. falciparum strain FCR3, in vitro, read-out: Antimalarial Activity FCR3, IC50"}, "[7]": {"conditions": "human, MRC-5 cells (normal human embryonic lung fibroblasts)"}},
  "note": "Like-named read-outs stand apart in the source and are kept apart here.",
  "data": [
    {"compound": "C[C@@H]1CC[C@H]2[C@@H](C)C(=O)O[C@@H]3O[C@@]4(C)CC[C@@H]1[C@]32OO4", "note": "[Artemisinin, reference compound]", "values": [
      {"measurement": "IC50", "setting": "[1]; [5]", "value": 0.01, "unit": "µg/mL"},
      {"measurement": "Selectivity Index MRC-5/K1", "setting": "[1]", "value": ">1412"},
      {"measurement": "IC50", "setting": "[2]; [6]", "value": 0.0088, "unit": "µg/mL"},
      {"measurement": "Selectivity Index MRC-5/FCR3", "setting": "[2]", "value": ">1604.5"},
      {"measurement": "IC50", "setting": "[3]; [7]", "value": "> 14.1", "unit": "µg/mL"}
    ]},
    {"compound": "CNCCc1cc(Br)c(OCCCNC(=O)N(C)CCc2cc(Br)c(OCCCNC(=O)C3=NO[C@]4(CC(Br)=C(OC)C(Br)=CO4)[C@@H]3O)c(Br)c2)c(Br)c1", "note": "[Ceratinadin E (1), ceratinadin E]", "values": [
      {"measurement": "IC50", "setting": "[1]; [5]", "value": 1.03, "unit": "µg/mL"},
      {"measurement": "Selectivity Index MRC-5/K1", "setting": "[1]", "value": 15.5},
      {"measurement": "IC50", "setting": "[2]; [6]", "value": 0.77, "unit": "µg/mL"},
      {"measurement": "Selectivity Index MRC-5/FCR3", "setting": "[2]", "value": 20.8},
      {"measurement": "IC50", "setting": "[3]; [7]", "value": 16, "unit": "µg/mL"}
    ]},
    {"compound": "CNCCc1cc(Br)c(OCCCNC(=O)N(C)CCc2cc(Br)c(OCCCNC(=O)N(C)CCc3cc(Br)c(OCCCNC(=O)C4=NO[C@]5(CC(Br)=C(OC)C(Br)=CO5)[C@@H]4O)c(Br)c3)c(Br)c2)c(Br)c1", "note": "[Ceratinadin F (2), ceratinadin F]", "values": [
      {"measurement": "antimalarial activity (in words)", "setting": "[1]; P. falciparum in vitro, strain not named, only K1 examined for this compound", "value": "did not show significant antimalarial activity"},
      {"measurement": "IC50", "setting": "[1]; [5]", "value": "> 12.5", "unit": "µg/mL"},
      {"measurement": "Selectivity Index MRC-5/K1", "setting": "[1]", "value": ">4"},
      {"measurement": "IC50", "setting": "[3]; [7]", "value": "> 50", "unit": "µg/mL"}
    ]},
    {"compound": "CCN(CC)CCCC(C)Nc1ccnc2cc(Cl)ccc12", "note": "(centres unmarked) [Chloroquine, reference compound]", "values": [
      {"measurement": "IC50", "setting": "[1]; K1, read-out: Antimalarial Activity K1, IC50", "value": 0.34, "unit": "µg/mL"},
      {"measurement": "IC50", "setting": "[2]; FCR3, read-out: Antimalarial Activity FCR3, IC50", "value": 0.035, "unit": "µg/mL"},
      {"measurement": "IC50", "setting": "[3]; normal human embryonic lung fibroblast", "value": "> 25.8", "unit": "µg/mL"}
    ]},
    {"compound": "psammaplysin F [Psammaplysin F (3)]", "values": [
      {"measurement": "Antimalarial Activity K1, IC50", "setting": "[1]; drug-resistant P. falciparum strain K1, in vitro", "value": 3.77, "unit": "µg/mL"},
      {"measurement": "Antimalarial Activity FCR3, IC50", "setting": "[2]; drug-sensitive P. falciparum strain FCR3, in vitro", "value": 2.45, "unit": "µg/mL"},
      {"measurement": "Cytotoxicity MRC-5, IC50", "setting": "[4]", "value": 12.65, "unit": "µg/mL"}
    ]}
  ]
}
